In patent US20070128217A1 (priority 2003, published 2007):

How the values were obtained:
[1] = tested on: antibodies in sera from SARS patients (sera 1a, 1b, 2, 6, 37, 62, London, SARS-yellow, SARS-green); type: binding, human; set-up: Binding of serum 6 to linear peptides of protein X1 of SARS-CoV Urbani / Binding of serum 37 to linear peptides of protein X1 of SARS-CoV Urbani / Binding of serum 6 to looped/cyclic peptide (PEPSCAN-ELISA) / Binding of serum 37 to looped/cyclic peptide (PEPSCAN-ELISA) / Binding of serum 37 to looped/cyclic peptides of protein X1 of SARS-CoV Urbani / Binding of serum 6 to linear peptides of protein X2 / Binding of serum 37 to linear peptides of protein X2 / Binding of serum 37 to looped/cyclic peptides of protein X2 of SARS-CoV Urbani / Binding of serum 6 to linear peptides of protein M of SARS-CoV Urbani / Binding of serum 37 to linear peptides of protein M of SARS-CoV Urbani / Binding of serum 6 to looped/cyclic peptides of protein M of SARS-CoV Urbani / Binding of serum 37 to looped/cyclic peptides of protein M of SARS-CoV Urbani / Binding of serum 6 to linear peptides of protein X3 of SARS-CoV Urbani / Binding of serum 37 to linear peptides of protein X3 of SARS-CoV Urbani / Binding of serum 37 to looped/cyclic peptides of protein X3 of SARS-CoV Urbani / Binding of serum 6 to linear peptides of protein X4 of SARS-CoV Urbani / Binding of serum 37 to linear peptides of protein X4 of SARS-CoV Urbani / Binding of serum 37 to looped/cyclic peptides of protein X4 of SARS-CoV Urbani / Binding of serum 6 to linear peptides of protein X5 of SARS-CoV Urbani / Binding of serum 37 to linear peptides of protein X5 of SARS-CoV Urbani / Binding of serum 37 to looped/cyclic peptides of protein X5 of SARS-CoV Urbani / Binding of serum 6 to linear peptides of protein N of SARS-CoV Urbani / Binding of serum 37 to linear peptides of protein N of SARS-CoV Urbani / Binding of serum 6 to linear peptide (PEPSCAN-ELISA) / Binding of serum 1a to looped/cyclic peptides of protein N of SARS-CoV Urbani / Binding of serum 1b to looped/cyclic peptides of protein N of SARS-CoV Urbani / Binding of serum 2 to looped/cyclic peptides of protein N of SARS-CoV Urbani / Binding of serum 6 to looped/cyclic peptides of protein N of SARS-CoV Urbani / Binding of serum 37 to looped/cyclic peptides of protein N of SARS-CoV Urbani / Binding of serum 62 to looped/cyclic peptides of protein N of SARS-CoV Urbani / Binding of serum London to looped/cyclic peptides of protein N of SARS-CoV Urbani / Binding of serum SARS-green to looped/cyclic peptides of protein N of SARS-CoV Urbani: unit not given here
[2] = tested on: rabbit serum obtained by immunizing a rabbit with the SARS-CoV strain Frankfurt 1; type: binding; set-up: Binding of a rabbit serum to linear peptides / Binding of a rabbit serum to looped peptides / Rabbit serum linear peptides / Rabbit serum looped peptides / Binding of a rabbit serum to linear peptides of protein N of SARS-CoV Urbani (Rabbit serum linear peptides) / Binding of a rabbit serum to looped/cyclic peptides of protein N of SARS-CoV Urbani (Rabbit serum looped peptides): unit not given here
[3] = tested on: control sera (pooled serum of ten healthy LUMC hospital workers; commercial negative donor pooled serum from the Dutch bloodbank); type: binding, human; set-up: Binding of Control serum LUMC to linear peptides / Binding of Control serum Blood-bank to linear peptides / Binding of Control serum LUMC to looped peptides / Binding of Control Serum Blood-Bank to Looped peptides / Binding of Control serum LUMC to linear peptides of the protein M of SARS-CoV Urbani / Binding of Control serum Blood-bank to linear peptides of the protein M of SARS-CoV Urbani / Binding of Control serum LUMC to looped peptides of the protein M of SARS-CoV Urbani / Binding of Control Serum Blood-Bank to Looped peptides of the protein M of SARS-CoV Urbani: unit not given here

Row | Sequence | Binding of serum 1a to linear peptides of protein M of SARS-CoV Urbani [1] | Binding of serum 1a to looped/cyclic peptides of protein M of SARS-CoV Urbani [1] | Binding of serum 1b to linear peptides of protein M of SARS-CoV Urbani [1] | Binding of serum 1b to looped/cyclic peptides of protein M of SARS-CoV Urbani [1] | Binding of serum 2 to linear peptides of protein M of SARS-CoV Urbani [1] | Binding of serum 2 to looped/cyclic peptides of protein M of SARS-CoV Urbani [1] | Binding of serum 6 to linear peptides of protein M of SARS-CoV Urbani [1] | Binding of serum 6 to looped/cyclic peptides of protein M of SARS-CoV Urbani [1] | Binding of serum 37 to linear peptides of protein M of SARS-CoV Urbani [1] | Binding of serum 37 to looped/cyclic peptides of protein M of SARS-CoV Urbani [1] | Binding of serum 62 to linear peptides of protein M of SARS-CoV Urbani [1] | Binding of serum 62 to looped/cyclic peptides of protein M of SARS-CoV Urbani [1] | Binding of serum London to linear peptides of protein M of SARS-CoV Urbani [1] | Binding of serum London to looped/cyclic peptides of protein M of SARS-CoV Urbani [1] | Binding of serum SARS-green to linear peptides of protein M of SARS-CoV Urbani [1] | Binding of serum SARS-green to looped/cyclic peptides of protein M of SARS-CoV Urbani [1] | Binding of serum SARS-yellow to linear peptides of protein M of SARS-CoV Urbani [1] | Binding of serum SARS-yellow to looped/cyclic peptides of protein M of SARS-CoV Urbani [1] | Rabbit serum linear peptides [2] | Rabbit serum looped peptides [2] | further results
1 | EQWNLVIGFLFLAWI | 0.7 | 0.7 | 0.5 | 0.6 | 0.5 | 0.6 | 0.5 | 0.4 | 0.4 | 0.7 | 0.5 | 0.7 | 0.4 | 0.2 | 0.4 | 0.4 | 0.3 | 0.6 | 0.2 | 0.4 | Binding of Control Serum Blood-Bank to Looped peptides of the protein M of SARS-CoV Urbani [3]: 0.6; Binding of Control serum Blood-bank to linear peptides of the protein M of SARS-CoV Urbani [3]: 0.5; Binding of Control serum LUMC to linear peptides of the protein M of SARS-CoV Urbani [3]: 0.4; Binding of Control serum LUMC to looped peptides of the protein M of SARS-CoV Urbani [3]: 0.7
2 | ESELVIGAVIIRGHL | 0.8 | 0.6 | 0.6 | 0.5 | 0.8 | 0.6 | 0.3 | 0.5 | 0.9 | 0.5 | 0.8 | 0.5 | 0.3 | 0.2 | 0.3 | 0.2 | 0.1 | 0.4 | 0.4 | 0.1 | Binding of Control Serum Blood-Bank to Looped peptides of the protein M of SARS-CoV Urbani [3]: 0.7; Binding of Control serum Blood-bank to linear peptides of the protein M of SARS-CoV Urbani [3]: 0.6; Binding of Control serum LUMC to linear peptides of the protein M of SARS-CoV Urbani [3]: 0.4; Binding of Control serum LUMC to looped peptides of the protein M of SARS-CoV Urbani [3]: 0.5
